Results taken from PubChem BioAssay (NCI).
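Test compounds were applied to cells in 96-well plates for 48 hours at 5 doses. At the TGI there is no net growth.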

Legend:
Experiment in all cases: DTP human tumour cell line panel, 48 h
[1] = system: SK-MEL-28 melanoma
[2] = system: HT29 colon
[3] = system: HOP-92 NSCLC
[4] = system: TK-10 renal
[5] = system: RPMI-8226 leukemia
[6] = system: COLO 205 colon
[7] = system: U251 CNS
[8] = system: SW-620 colon
[9] = system: EKVX NSCLC
[10] = system: SK-MEL-2 melanoma
[11] = system: CAKI-1 renal
[12] = system: OVCAR-5 ovarian
[13] = system: HOP-62 NSCLC
[14] = system: UACC-62 melanoma

| SMILES | TGI [1] | TGI [2] | TGI [3] | TGI [4] | TGI [5] | TGI [6] | TGI [7] | TGI [8] | TGI [9] | TGI [10] | TGI [11] | TGI [12] | TGI [13] | TGI [14] |
| --- | --- | --- | --- | --- | --- | --- | --- | --- | --- | --- | --- | --- | --- | --- |
| Cc1cnc2c(c1C)C(=O)c1ccccc1C2=O | > 100 µM | > 100 µM | > 100 µM | > 100 µM | > 100 µM | > 100 µM | > 100 µM | > 100 µM | > 100 µM | > 100 µM | > 100 µM | > 100 µM | > 100 µM | – |
| O=C(c1ccccc1)c1c(CC(O)c2ccncc2)n(C(=O)c2ccccc2)c2ccccc12 (stereo unspecified) | 32.4 µM | 33.2 µM | 29.4 µM | 75.2 µM | 46.1 µM | 33.7 µM | 31.6 µM | 39.2 µM | – | 31 µM | 59.7 µM | 34.5 µM | 31.6 µM | 31.5 µM |
| Nc1ccc(Nc2cc(=O)[nH]c(=O)[nH]2)cc1Cl | > 100 µM | > 100 µM | > 100 µM | > 100 µM | > 100 µM | > 100 µM | > 100 µM | > 100 µM | – | > 100 µM | > 100 µM | > 100 µM | – | > 100 µM |
| CC(C)(CCC(C)(C)N1OC1c1ccccc1)N1OC1c1ccccc1 (stereo unspecified) | > 100 µM | > 100 µM | > 100 µM | > 100 µM | 71.4 µM | > 100 µM | > 100 µM | > 100 µM | – | > 100 µM | 60.3 µM | – | – | > 100 µM |
| Nc1nc2c(C(=O)O)c3ccc([N+](=O)[O-])cc3c(=O)n2c2ccccc12 | > 100 µM | > 100 µM | – | – | > 100 µM | > 100 µM | 92.9 µM | > 100 µM | > 100 µM | 79.1 µM | > 100 µM | > 100 µM | > 100 µM | > 100 µM |
| C=C(C)[C@@H]1CC[C@]2(C(=O)OC)CC[C@]3(C)[C@H](CC[C@@H]4[C@@]5(C)CC[C@H](O)C(C)(C)[C@@H]5CC[C@]43C)[C@@H]12 | 47.2 µM | 60 µM | 41.3 µM | – | – | – | 35.8 µM | 38.8 µM | 45.1 µM | – | 39.6 µM | 55.4 µM | 41.3 µM | – |
| NNc1nnc(-c2nnc(NN)o2)o1 | > 10 µM | > 10 µM | > 10 µM | > 10 µM | > 10 µM | > 10 µM | > 10 µM | > 10 µM | > 10 µM | – | > 10 µM | > 10 µM | > 10 µM | > 10 µM |
| C=C1CC[C@@H](C)[C@](C)(CCc2ccoc2)C/C=C\C=C/1C(=O)O | 48.6 µM | > 100 µM | > 100 µM | > 100 µM | – | 49.4 µM | > 100 µM | > 100 µM | > 100 µM | 43.8 µM | > 100 µM | > 100 µM | > 100 µM | > 100 µM |
| O=C1NC2CCCCCC2C12CCCCC2 (stereo unspecified) | > 100 µM | > 100 µM | – | > 100 µM | – | – | > 100 µM | > 100 µM | > 100 µM | – | – | > 100 µM | > 100 µM | > 100 µM |
| CC(=O)O[C@H]1CC[C@@]2(C)C(=CC[C@@H]3[C@@H]2CC[C@]2(C)c4nc(Cl)ccc4C[C@@H]32)C1 | > 100 µM | > 100 µM | > 100 µM | > 100 µM | – | > 100 µM | > 100 µM | > 100 µM | > 100 µM | – | > 100 µM | > 100 µM | > 100 µM | 54.3 µM |
| CCN(CC)c1nnc(CCCCCCCCc2nnc(N(CC)CC)o2)o1 | > 100 µM | > 100 µM | > 100 µM | > 100 µM | – | > 100 µM | > 100 µM | > 100 µM | > 100 µM | > 100 µM | > 100 µM | > 100 µM | > 100 µM | – |
| O=[N+]([O-])c1ccc(C(O)(C#CCN2CCCC2)c2ccccc2)cc1 (stereo unspecified) | 34 µM | 34 µM | 51.7 µM | > 100 µM | 61.9 µM | 37.8 µM | > 100 µM | > 100 µM | > 100 µM | 75.5 µM | – | > 100 µM | > 100 µM | 87.4 µM |
| O=NN(CCF)C(=O)NC1CCSCC1 | > 100 µM | > 100 µM | > 100 µM | – | > 100 µM | > 100 µM | > 100 µM | > 100 µM | – | > 100 µM | > 100 µM | > 100 µM | > 100 µM | > 100 µM |
| CNNC(=NS(=O)(=O)c1cc(C#N)c(NNC)cc1S)NNC | > 10 µM | > 10 µM | > 10 µM | > 10 µM | > 10 µM | > 10 µM | > 10 µM | > 10 µM | > 10 µM | > 10 µM | > 10 µM | > 10 µM | > 10 µM | – |
| COc1cccc(C2c3cc4c(cc3OC3COC(=O)C32)OCO4)c1OC (stereo unspecified) | > 100 µM | > 100 µM | > 100 µM | > 100 µM | – | > 100 µM | – | > 100 µM | > 100 µM | > 100 µM | > 100 µM | > 100 µM | > 100 µM | > 100 µM |
| COc1ccc(NC(=O)C(=O)/C=C(\O)c2ccccc2)cc1 | > 10 µM | > 10 µM | > 10 µM | > 10 µM | > 10 µM | > 10 µM | – | > 10 µM | > 10 µM | – | > 10 µM | – | > 10 µM | > 10 µM |
| CO/N=C1/c2sccc2[C@H](NC(=O)C(Cc2ccccc2)NC(=O)OC(C)(C)C)[C@@H]1O (stereo partly specified) | > 100 µM | > 100 µM | > 100 µM | > 100 µM | – | > 100 µM | > 100 µM | > 100 µM | > 100 µM | > 100 µM | > 100 µM | > 100 µM | > 100 µM | > 100 µM |
| CSc1c(C#N)c(N)n(-c2ccc(Cl)cc2)c(=O)c1C#N | > 100 µM | > 100 µM | > 100 µM | > 100 µM | > 100 µM | > 100 µM | > 100 µM | > 100 µM | > 100 µM | > 100 µM | > 100 µM | > 100 µM | – | > 100 µM |
